# Tests used:
# [1] = tested on: atrial natriuretic factor (ANF) mRNA; assay: ANF mRNA dot blot in primary cardiomyocytes treated with AngII; assay type: cell-based, rat; conditions: AngII exposure
# Experimental: A-F, Primary rat cardiocytes in serum-free medium were stimulated with AngII (10 nM) or PE (10 μm) for 72 hours. Cells were then fixed and stained with anti-α-actinin antibody to reveal sarcomeres and Hoechst stain to reveal nuclei. […] G, Total RNA was isolated from primary cardiocyte cultures treated with AngII in the presence or absence of CsA as in A and analyzed for expression of GAPDH and ANF transcripts by dot blot. H, Primary rat cardiomyocytes were transiently transfected with a luciferase reporter gene linked to 3 tandem copies of the NF-AT consensus binding site. Cells were then treated with AngII or PE in the presence or absence of CsA, as described above. Forty-eight hours later, cells were harvested and luciferase activity was determined.
# To determine whether changes in cardiomyocyte gene expression in response to AngII were also controlled by a calcineurin-dependent signaling pathway, the expression of ANF mRNA in cardiomyocytes treated with AngII was examined in the presence and absence of CsA by a dot blot assay. […] GAPDH mRNA was measured as a control.
# RNA analysis. Total RNA was collected and purified with Triazol reagent (Gibco BRL) as recommended. […]
# [2] = tested on: neonatal rat cardiomyocytes; assay: AngII- and PE-induced hypertrophy of primary cardiomyocytes (anti-α-actinin staining, cell size and sarcomeric assembly); assay type: cell-based; conditions: 72 hr; AngII 10 nM or PE 10 μM
# Experimental: To visualize primary cardiomyocytes and their sarcomeric organization, anti-α-actinin mouse monoclonal antibody was used (Sigma). […] Cells were washed in 1×phosphate-buffered saline (PBS), fixed in 3.7% paraformaldehyde for 5 minutes, washed three times with 1×PBS and then pre-blocked in 1×PBS containing 2% horse serum, 2% BSA, and 0.1% non-ionic detergent NP40 for 30 minutes. Anti-α-actinin antibody was added at a dilution of 1:800 in fresh preblock solution and incubated for an additional 30 minutes. Subsequently, the cells were washed three times in 1×PBS with 0.1% NP40. Anti-mouse TRITC-conjugated secondary antibody was then added at a dilution of 1:400 for 30 minutes in pre-block solution and the cells were again washed three times in 1×PBS containing 0.1% NP40. Nuclear staining for DNA was performed with 0.5 μg/ml of bisbenzimide in PBS for 15 minutes followed by three rinses with PBS.
substance,measurement,setting,value
"angiotensin II [AngII, humoral factor which induces the hypertrophic response in cardiomyocytes]",increase in ANF mRNA,[1],15 fold
same,cardiomyocyte size and sarcomeric assembly after exposure to agonist,[2],dramatic increase in size and sarcomeric assembly
